The source of these data is patent US6410249B1, “Odorant receptors” (priority 1999, dated 2002).

The target in test [1] is T1, receptor 5.24 (Carassius auratus, UniProt Q9PW88).
T1 construct: The receptor 5.24 full length cDNA detects 1-2 bands in genomic DNA blots; expressed in transfected cells; host or cells: HEK 293 cells expressing SV40 large T antigen (293-TSA)
T1 sequence (Q9PW88 25-877): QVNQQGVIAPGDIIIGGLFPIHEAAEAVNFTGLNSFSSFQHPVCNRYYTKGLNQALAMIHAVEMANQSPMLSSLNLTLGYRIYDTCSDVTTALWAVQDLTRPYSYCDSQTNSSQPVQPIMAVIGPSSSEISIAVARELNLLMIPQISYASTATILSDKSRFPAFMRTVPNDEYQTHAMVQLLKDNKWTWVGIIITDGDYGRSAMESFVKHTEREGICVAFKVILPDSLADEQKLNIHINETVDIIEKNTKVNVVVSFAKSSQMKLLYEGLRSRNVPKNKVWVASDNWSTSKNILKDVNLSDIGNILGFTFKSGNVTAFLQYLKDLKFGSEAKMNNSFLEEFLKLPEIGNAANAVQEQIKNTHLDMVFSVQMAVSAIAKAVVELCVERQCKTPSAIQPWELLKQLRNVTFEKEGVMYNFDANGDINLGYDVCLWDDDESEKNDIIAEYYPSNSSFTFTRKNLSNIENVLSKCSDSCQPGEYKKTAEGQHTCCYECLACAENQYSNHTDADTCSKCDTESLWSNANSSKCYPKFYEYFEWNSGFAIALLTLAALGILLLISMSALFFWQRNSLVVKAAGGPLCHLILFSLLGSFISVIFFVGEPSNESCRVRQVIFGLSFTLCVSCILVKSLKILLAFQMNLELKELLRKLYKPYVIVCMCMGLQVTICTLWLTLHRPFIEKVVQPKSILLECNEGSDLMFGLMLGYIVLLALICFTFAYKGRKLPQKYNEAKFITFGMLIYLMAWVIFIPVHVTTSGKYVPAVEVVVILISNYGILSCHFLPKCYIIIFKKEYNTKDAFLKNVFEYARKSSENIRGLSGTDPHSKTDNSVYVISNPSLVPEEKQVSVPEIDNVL
The test is described as follows: biochemical. Type of test: binding. The note with it: for binding to receptor 5.24, in words: comparative binding studies. The procedure: Structure-Activity Properties of Compounds Interacting with the Cloned Goldfish Amino Acid Odorant Receptor. An understanding of how odorant receptors are used to encode olfactory information requires a characterization of the odorant specificities of individual receptor types. We therefore wished to determine the relative specificity of receptor 5.24 for structurally related ligands. […] Briefly, 3H-arginine binding to membranes from receptor 5.24-expressing HEK 293 cells was assayed in the absence or presence of varying concentrations of competitor ligands.
Mammalian Cell Culture and DNA Transfections. For cell transfections, the receptor 5.24 cDNA insert was subcloned into two expression vectors: CMVI, which utilizes a human cytomegalovirus (CMV) immediate early promoter-enhancer plus the CMV intron A sequence to drive expression, and 608RX-2.2L, which is similar to CMVI except the cDNA insert is followed by an internal ribosome entry site (IRES)—enhanced green fluorescent protein (EGFP) coding sequence; 608RX-2.2L also contains a puromycin resistance gene. For transient assays, HEK 293 cells expressing the SV40 large T antigen (293 TSA cells) were transfected with the CMVI-receptor 5.24 or CMVI control plasmid using lipofectamine (Life Technologies) and harvested at 48 hours for membrane preparations. For stable cell lines, 293-TSA cells were transfected with the 608RX-2.2L-receptor 5.24 plasmid or a control 608RX-2.2L plasmid and selected in puromycin. Colonies showing high levels of EGFP fluorescence (as judged by epifluorescence microscopy) were picked, expanded, and screened for 3H-L-arginine binding (see below).
Membrane Preparations and Ligand Binding Assays. Membranes for ligand binding assays were prepared by washing confluent cells three times with phosphate buffered saline (PBS), detaching cells with a PBS-based enzyme-free dissociation solution, and resuspending cells in ice-cold 5.0 mM Hepes, pH 7.4, 1.0 mM EDTA, 1.0 μg/ml leupeptin, 0.5 mM PMSF. All subsequent manipulations were performed on ice. After a 30 min incubation, the cell suspension was homogenized and centrifuged at 100,000×g for 30 min. Cell membrane pellets were washed twice by resuspension and centrifugation in binding buffer (20 mM Hepes, pH 7.4, 1.0 mM EDTA, 2.0 mM MgCl2, 1.0 μg/ml leupeptin, 0.5 mM PMSF), resuspended in binding buffer, and frozen at −80° C.
Saturation binding assays were performed using 20-25 μg of membrane protein in a final volume of 100 μl binding buffer and increasing concentrations of [2,3-3H] L-arginine (specific activity=40 Ci/mmol; Dupont NEN). Non-specific binding was measured in the presence of 500 μM unlabeled L-arginine. Competition assays were performed with 500 nM [2,3-3H] L-arginine and increasing concentrations of competitor ligands. All incubations were performed at 4° C. for 60 min and terminated by rapid filtration through Whatman GF/C filters pretreated with ice cold 0.1% polyethyleneimine. Filters were washed three times with 4.0 ml ice cold 20 mM Hepes, pH 7.4, and retained radioactivity was measured by scintillation counting.

Test [2] concerns the target T1, receptor 5.24. Description: evoked currents in Xenopus oocytes expressing receptor 5.24 (two-electrode voltage clamp). Type of test: cell-based, goldfish. The text has this:
Identification by Expression Cloning of a cDNA Encoding a Goldfish Odorant Receptor. RNA was synthesized from pools of goldfish olfactory cDNA clones (900 individual clones per pool) and injected into Xenopus oocytes together with synthetic RNAs encoding GIRK and Gaolf. Oocytes were then screened for responses upon exposure to odorant cocktails containing amino acids, bile acids, or sex pheromones. […] The response to amino acids was biphasic, beginning with an oscillating inward current above the basal inward K+ current, followed by a decline in inward current to below the basal level. Such a biphasic effect is thought to be caused by Gaq-mediated activation of phospholipase C (responsible for the intial inward current via IP3) and protein kinase C (leading to suppression of the K+ current through phosphorylation of GIRK channel subunits) (Sharon et al., 1997).
Iterative subdivision of pool 19 by sib-selection allowed the isolation of a single clone encoding a receptor, designated receptor 5.24.
Oocytes were removed from anesthetized Xenopus laevis and treated with collagenase. Forty nanograms of cRNA from each cDNA library pool (˜40 pg cRNA/clone) was injected per oocyte, together with cRNAs encoding Gaolf and the GIRK subunits Kir 3.1 and Kir 3.4 (˜30 pg each). Approximately 30 pools were assayed before these primary screens were halted. Injected oocytes were incubated at 17° C. for over 80 hours prior to electrophysiological recordings. Recordings were performed by two-electrode voltage clamping using an Axoclamp-2A amplifier (Axon Instruments) or a Dagan CA-1 amplifier (Dagan Corp.). Data acquisition and analysis were performed using pCLAMP software (Axon Instruments). Membrane potential was held at −80 mV. For trials involving GIRK, oocytes were first perfused with Na-MBSH (88 mM NaCl, 1 mM KCl, 2.4 mM NaHCO3, 10 mM Hepes, pH 7.5, 0.82 mM MgSO4[7H2O], 0.33 mM Ca[NO3]2[4H2O], 0.41 mM CaCl2[2H2O]), and then switched into K-MBSH, which contains elevated K+ (88 mM KCl, 1 mM NaCl) until the basal current had stabilized (˜45 seconds) before challenging with agonist. Recordings on oocytes injected with receptor 5.24 in the absence of Gaolf and/or GIRK subunits were performed in Na-MBSH. Oocytes were exposed to solutions containing different agonists by switching bathing solutions with an 8 channel valve (Hamilton).

[3] abbreviates: displacement of 3H-L-arginine from membranes of HEK 293 cells expressing receptor 5.24, read-out: Ki (binding affinity).
Where [4] appears, read: 3H-arginine displacement, read-out: Ki.
The mark [5] stands for this setting: read-out: Ki (binding affinity), displacement of 3H-L-arginine from membranes of HEK 293 cells expressing receptor 5.24.

Each structure is given as a SMILES string. pKi: −log10 of the molar value. Entries after “also recorded” stand apart in the source; their conditions may differ. Where two headings read alike, the source gives them in different places.

As for `N=C(N)NCCCC[C@H](N)C(=O)O` [L-Homoarginine], the pKi (commonly the negative decadic logarithm of the Ki, by convention in mol/L) in test [1] was 5.79.

Take `CC[C@H](C)[C@H](N)C(=O)O` [L-Isoleucine]: in test [1] (setting [3]), the pKi was 5.66. For the same compound, the “activation of receptor 5.24 (evoked currents), in words” value (from here on “activation”) in test [2] is reported as “smaller responses”.

`CC(C)C[C@H](N)C(=O)O` [L-Leucine]: the pKi in test [1] (setting [3]) was 5.36.

With `N[C@@H](Cc1c[nH]cn1)C(=O)O` [L-Histidine], in test [1], the pKi is 4.89 and the “binding to receptor 5.24, in words” value was “low affinities”. Moreover, in test [2], the “activation” value is listed as “little or no response”.

Take `NC(=O)NCCC[C@H](N)C(=O)O` [L-Citruline]: in test [1] (setting [3]), the pKi is 6.02.

On to `O=C(O)[C@@H]1CCCN1` [L-Proline], for which the “binding to receptor 5.24, in words” value in test [1] is on record as “low affinities”. In test [1] (setting [3]), the pKi is 4.24.

For the compound `NCCC[C@H](N)C(=O)O` [L-Ornithine], the pKi in test [1] (setting [4]) is 6.00.

`NCC(=O)O` [L-Glycine]: in test [1] (setting [3]), the pKi was 5.41.

Regarding `CSCC[C@H](N)C(=O)O` [L-Methionine], the pKi in test [1] (setting [3]) was 6.09. In test [2], the “activation” value is on record as “smaller responses”.

In test [1], `N[C@@H](CC(=O)O)C(=O)O` [L-Aspartate] showed a pKi of 4.57.

Regarding `NC(=O)CC[C@H](N)C(=O)O` [L-Glutamine], the pKi in test [1] (setting [3]) was 6.49.

Consider `N[C@@H](Cc1ccccc1)C(=O)O` [L-Phenylalanine], for which the “binding to receptor 5.24, in words” value in test [1] is “low affinities”. Besides, the pKi in test [1] (setting [3]) is 5.24. The “activation” value in test [2] is on record as “little or no response”.

As for `N[C@@H](Cc1ccc(O)cc1)C(=O)O` [L-Tyrosine], in test [1], the pKi was 4.80 and the “binding to receptor 5.24, in words” value was “low affinities”. In test [2], the “activation” value is “little or no response”.

Take `N=C(N)NCCCCN` [Agmatine]: in test [1], the pKi was under 3.00 and the “binding to receptor 5.24, in words” value is “displaces 3H-arginine very poorly; also recorded: essentially no binding”. Besides, the pKi in test [1] (setting [5]) was under 3.00.

Consider `NCCS(=O)(=O)O` [Taurine], for which the pKi in test [1] (setting [4]) and in test [1] (setting [3]) was under 3.00 throughout. Further, the “binding to receptor 5.24, in words” value in test [1] is “no specific interactions”.

Take `N[C@@H](Cc1c[nH]c2ccccc12)C(=O)O` [L-Tryptophan]: the “binding to receptor 5.24, in words” value in test [1] was “low affinities”. In addition, the pKi in test [1] (setting [3]) is 5.39. Moreover, the “activation” value in test [2] is “little or no response”.

Turning to `NCCC(=O)N[C@@H](Cc1cnc[nH]1)C(=O)O` [Carnosine], the pKi in test [1] (setting [4]) and in test [1] (setting [3]) was under 3.00 in each case. In addition, the “binding to receptor 5.24, in words” value in test [1] is reported as “no specific interactions”.

Regarding `[Ca+2]` [calcium], the “activation” value in test [2] is listed as “not activated”.

In the case of `COC(=O)[C@@H](N)CCCNC(=N)N[N+](=O)[O-]` [L-NAME], the “binding to receptor 5.24, in words” value in test [1] was “modest affinity”. In addition, in test [1] (setting [3]), the pKi was 5.99.

Turning to `NCCCC(=O)O` [γ-Aminobutyric Acid (GABA), γ-Aminobutyric Acid], the pKi in test [1] and in test [1] (setting [5]) was under 3.00 in each case. Moreover, the “binding to receptor 5.24, in words” value in test [1] is “no specific interactions”.

Turning to `N[C@@H](CS)C(=O)O` [L-Cysteine], in test [1] (setting [3]), the pKi is 6.28.

In the case of `NC(=O)C[C@H](N)C(=O)O` [L-Asparagine], the pKi in test [1] (setting [3]) was 5.68.

For the compound `C[C@H](N)C(=O)O` [L-Alanine], the pKi in test [1] (setting [3]) was 5.25. In addition, the “activation” value in test [2] is on record as “smaller responses”.

As for `CC(C)[C@H](N)C(=O)O` [L-Valine], the pKi in test [1] (setting [3]) was 5.21.

Regarding `NCCCCN` [Putrescine], the pKi in test [1] (setting [3]) was under 3.00.

Take `N[C@@H](CCC(=O)O)C(=O)O` [L-Glutamate]: in test [1] (3H-arginine displacement), the “fold decrease in affinity / displacement relative to arginine or lysine” value is “approximately 80 fold”. The pKi in test [1] (setting [3]) was 5.17. For the same compound, the “activation” value in test [2] (listed as Glutamate) is on record as “does not appear to activate”; in test [2] (listed as glutamate) it was “little or no response; also recorded: not activated”.

On to `NCCCCCN` [Cadaverine], for which the pKi in test [1] (setting [4]) and in test [1] (setting [3]) was under 3.00 each time. The “binding to receptor 5.24, in words” value in test [1] is listed as “essentially no binding”.

In the case of `C[C@@H](O)[C@H](N)C(=O)O` [L-Threonine], the pKi in test [1] (setting [3]) is 5.49. The “activation” value in test [2] is “smaller responses”.
